Test results as given in paper PMC11209911 (ACS Omega, 2024).

Target: α-glucosidase
Experiment: α-glucosidase inhibitor screening kit
Type: biochemical

IC50: 66.1 µM
Compound: C=C/C=C(\C)CC[C@@H]1C[C@@H](O)CC(=O)O1 [30b, (4R,6R)-4-Hydroxy-6-((E)-3-methylhexa-3,5-dien-1-yl)tetrahydro-2H-pyran-2-one]
